According to patent US4185119A, “Antiallergic methods” (priority 1977, dated 1980):
Counter-ions that a name gives are not always drawn.

Legend:
[1] = tested on: P.C.A. reaction in S.D. strain rats; test: Inhibition test of P.C.A. reaction in S.D. strain rats, rat hyperimmune antiserum against egg albumin; format: in vivo
Procedure: (§1) (b) Rat hyperimmune antiserum against egg albumin
(§2) A solution of egg albumin (20 mg.) in normal saline (1 ml.) was mixed with complete adjuvant (1 ml.) (made by Difco Laboratories) to given an emulsion. The emulsion was subcutaneously given in a single dose of 1 ml. divided equally (0.25 ml.) to the four pads of male S.D. strain rats aged 6 weeks, each weighing about 200 g. (The first immunization).
(§3) One week after the administration, an emulsion which was prepared by mixing a solution of egg albumin (10 mg.) in normal saline (1 ml.) with complete adjuvant (1 ml.) was further given subcutaneously (at 3 places) and intramuscularly (at 1 place) in a single dose of 1 ml. divided equally (0.25 ml.) to thigh of the same rats. (The second immunization).
(§4) Three weeks after the second administration, a solution of egg albumin (1 mg.) in normal saline (1 ml.) was further given intracutaneously in a single dose of 0.3 ml. divided equally (0.1 ml.) to 3 places of the same rats. (The third immunization).
(§5) One week after the third administration, blood samples were collected from rats and treated in substantially the same manner as described in the above item (a). The antisera thus obtained were stored at -80° C. prior to use.
(§6) (2) Inhibition test of P.C.A. (Passive Cutaneous Anaphylaxis) reaction
(§7) (a) Inhibitory effect on P.C.A. reaction in S.D. strain rats
(§8) Fifteen male S.D. strain rats aged 8 weeks, each weighing about 270 g were divided equally into 3 groups.
(§9) A rat reaginic antiserum (0.07 ml.) as prepared by the above (1)-(a) was given intracutaneously to the depilated back of each rat of Group I and Group II. On the other hand, a rat normal serum (0.07 ml.) was given intracutaneously to the depilated back of each rat of Group III, respectively.
(§10) Thirty hours after the administration, a normal saline (0.5 ml.) containing egg albumin (7.5 mg.) and Evans blue (2.5 mg.) was intravenously given to each rat of Groups I-III in order to bring about P.C.A., respectively.
(§11) Beforehand, 3 hours, 1 hour and […] before the intravenous administration to bring about P.C.A., a normal saline (1 ml.) containing the prescribed amount of N-methyllaurotetanine hydrochloride and carboxymethylcellulose (0.5 %) was given orally, intraperitoneally or intravenously to each rat of Group I and a normal saline (1 ml.) containing only carboxymethylcellulose (0.5% was also given orally, intraperitoneally or intravenously to each rat of Group II.
(§12) Thirty minutes after challenge with antigen, the animals were sacrificed and then skinned. To each of the sensitized spots punched, was added a mixture (7 ml.) of acetone and 2% aqueous sodium alkylbenzenesulfonate solution (4:1) and then the mixture was homogenized. The homogenate was shaken at ambient temperature for 2 hours and filtered. Optical density at 620 nm of the filtrate was determined and from the value of the optical density, inhibitory effect of P.C.A. reaction was calculated by using the following equation. [formula] A: Optical Density Value of Group II B: Optical Density Value of Group I
(§13) C: Optical Density Value of Group III
(§14) Further, an inhibition test on P.C.A. reaction using the rat hyperimmuneantiserum against egg albumin was carried out in substantially the same manner as described in the above, excepting that the intravenous administration to bring about P.C.A. was carried out at 5.5 hours after the administration of the serum and antiserum. And inhibitory effect on the P.C.A. reaction was also calculated in substantially the same manner as described in the above.

[2] = tested on: P.C.A. reaction in S.D. strain rats; test: Inhibition test of P.C.A. (Passive Cutaneous Anaphylaxis) reaction in S.D. strain rats, rat reaginic antiserum against egg albumin; format: in vivo
Procedure: (a) Rat reaginic antiserum against egg albumin
A solution of egg albumin (2 mg) in B. pertussis-diphtheria-tetanus mixed vaccine (1 ml.) (made by Takeda Chemical Industries Ltd.) was mixed with an equal volume of incomplete adjuvant (made by Difco Laboratories) to give an emulsion. The emulsion was given subcutaneously in a single dose of 1 ml. divided equally (0.25 ml.) to the four foot pads of male S.D. (Sprague-Dawley) strain rats aged 8 weeks, each weighing about 300 g.
Five days after the administration, a solution of egg albumin (0.5 mg.) in B. pertussis-diphtheria-tetanus mixed vaccine (0.5 ml.) was further given intramuscularly in a single dose of 0.5 ml. divided equally (0.25 ml.) to 2 places of thigh of the same rats.
Three days after the second administration, blood samples were collected from femoral artery of the rats and allowed to stand at ambient temperature for 5 hours. The separated supernatant was centrifuged at 4° C. (10,000 r.p.m.× 1 hour). The antisera thus obtained were stored at -80° C. prior to use.
as §6, §7, §8, §9, §10, §11, §12, §13

[3] = tested on: P.C.A. reaction in Donryu strain rats; test: Inhibition of P.C.A. reaction in Donryu strain rats, rat hyperimmune antiserum against egg albumin; format: in vivo; settings: Donryu rat (Table 2-I)
Procedure: as §1, §2, §3, §4, §5, §14
(b) Inhibitory effect on P.C.A. reaction in Donryu strain rat
The following tests were carried out in substantially the same manner as described in the above item (2)-(a).
(i) Test compound: N:methyllaurotetanine hydrochloride
Test animal: Male Donryu strain rats aged 8 weeks, weighing about 130 g.
Challenge: A normal saline (0.3 ml.) containing egg albumin (4.5 mg.) and Evans blue (1.5 mg.).
(ii) Test commpound: glaucine or boldine
Test animal: Male Donryu strain rats aged 8 weeks, weighing 140-150 g.
Challenge: the same as the above item (b)-(i).

[4] = Acute toxicity in mice; settings: mouse, in vivo, ip; intraperitoneal, male I.C.R. mice, survivals at one week
Procedure: Test: Acute Toxicity in Mice
A normal saline containing each of the test compound mentioned below and 0.5% carboxymethylcellulose was given intraperitoneally to male I.C.R. (Institute of Cancer Research) strain mice aged 5 weeks, weighing 33-35 g. LD50 values were calculated from the survivals of mice at one week after the administration of the test compound.

Which “Inhibitory effect on P.C.A. reaction” value ([1]; intraperitoneal, 4 mg/kg) does the source give for `COc1cc2c(cc1O)CC1c3c(cc(OC)c(OC)c3-2)CCN1C` (stereo not drawn) [N-Methyllaurotetanine hydrochloride] here?
Its value is 20%.

And the “Inhibitory effect on P.C.A. reaction” value ([1]; intraperitoneal, 13 mg/kg)?
The value was 60%.

And the “Inhibitory effect on P.C.A. reaction” value ([1]; intraperitoneal, 40 mg/kg)?
The value was 72%.

What about the ED50 ([1]; intravenous) of the same compound?
Its ED50 is 4 mg/kg.

What about the “Inhibitory effect on P.C.A. reaction” value ([1]; intravenous, 1 mg/kg) of the same compound?
The value was 23%.

What about the “Inhibitory effect on P.C.A. reaction” value ([1]; intravenous, 3 mg/kg) of the same compound?
Its value is 46%.

What about the “Inhibitory effect on P.C.A. reaction” value ([1]; intravenous, 9 mg/kg) of the same compound?
The value was 65%.

What about the ED50 ([1]; ip, intraperitoneal) of the same compound?
The ED50 was 11 mg/kg.

What about the ED50 ([1]; oral) of the same compound?
Its ED50 is 110 mg/kg.

What about the “Inhibitory effect on P.C.A. reaction” value ([1]; oral, 20 mg/kg) of the same compound?
Its value is 42%.

And the “Inhibitory effect on P.C.A. reaction” value ([1]; oral, 66 mg/kg)?
The value was 33%.

What about the “Inhibitory effect on P.C.A. reaction” value ([1]; oral, 200 mg/kg) of the same compound?
Its value is 81%.

What about the “Inhibitory effect on P.C.A. reaction” value ([2]; intraperitoneal, 4 mg/kg) of the same compound?
Its value is 6%.

And the “Inhibitory effect on P.C.A. reaction” value ([2]; intraperitoneal, 13 mg/kg)?
The value was 80%.

And the “Inhibitory effect on P.C.A. reaction” value ([2]; intraperitoneal, 40 mg/kg)?
Its value is 85%.

And the ED50 ([2]; intravenous)?
Its ED50 is 2.5 mg/kg.

And the “Inhibitory effect on P.C.A. reaction” value ([2]; intravenous, 1 mg/kg)?
Its value is 24%.

What about the “Inhibitory effect on P.C.A. reaction” value ([2]; intravenous, 3 mg/kg) of the same compound?
Its value is 57%.

And the “Inhibitory effect on P.C.A. reaction” value ([2]; intravenous, 9 mg/kg)?
Its value is 85%.

What about the ED50 ([2]; ip, intraperitoneal) of the same compound?
The ED50 was 4.8 mg/kg.

What about the ED50 ([2]; oral) of the same compound?
The ED50 was 100 mg/kg.

And the “Inhibitory effect on P.C.A. reaction” value ([2]; oral, 20 mg/kg)?
The value was 16%.

What about the “Inhibitory effect on P.C.A. reaction” value ([2]; oral, 66 mg/kg) of the same compound?
Its value is 35%.

And the “Inhibitory effect on P.C.A. reaction” value ([2]; oral, 200 mg/kg)?
Its value is 85%.

And the “Inhibitory effect on P.C.A. reaction” value ([3]; intraperitoneal, 4 mg/kg)?
Its value is 10%.

What about the “Inhibitory effect on P.C.A. reaction” value ([3]; intraperitoneal, 13 mg/kg) of the same compound?
The value was 55%.

And the “Inhibitory effect on P.C.A. reaction” value ([3]; intraperitoneal, 40 mg/kg)?
Its value is 50%.

What about the “Inhibitory effect on P.C.A. reaction” value ([3]; intravenous, 6.7 mg/kg) of the same compound?
Its value is 50%.

What about the “Inhibitory effect on P.C.A. reaction” value ([3]; intravenous, 20 mg/kg) of the same compound?
The value was 80%.

And the “Inhibitory effect on P.C.A. reaction” value ([3]; oral, 20 mg/kg)?
The value was 30%.

What about the “Inhibitory effect on P.C.A. reaction” value ([3]; oral, 66 mg/kg) of the same compound?
Its value is 40%.

What about the “Inhibitory effect on P.C.A. reaction” value ([3]; oral, 200 mg/kg) of the same compound?
Its value is 65%.

And the LD50 at 168 h [4]?
Its LD50 at 168 h is 91.7 mg/kg.
